According to the supplement of paper PMC10307832:

Experiments:
Test in all cases: relative viability (nuclei count vs DMSO), 5 days (fraction); higher = more cells survive
[1] = compound: CO[C@@H]1[C@H](N(C)C(=O)c2ccccc2)C[C@H]2O[C@]1(C)n1c3ccccc3c3c4c(c5c6ccccc6n2c5c31)C(=O)NC4 [Midostaurin] + Nc1nc2[nH]cc(CCc3ccc(C(=O)N[C@@H](CCC(=O)O)C(=O)O)cc3)c2c(=O)[nH]1 [Pemetrexed] (partner 0.2 µM)
Summary of the method: (§1)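 Five library-drug doses in √10 steps were combined with a fixed anchor-drug dose, or a single drug was given alone, by pin tool to lung cancer cell lines in 1536-well plates the day after seeding. Nuclei were stained and counted after 5 days. Relative viability is the nuclei count in treated wells over that in vehicle wells, taken as the median of duplicate plates.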

[2] = compound: COc1cc(-c2nn([C@H]3CC[C@H](N4CCN(C(C)=O)CC4)CC3)c3ncnc(N)c23)ccc1NC(=O)c1cc2ccccc2n1C + O=C(c1cc(Cc2n[nH]c(=O)c3ccccc23)ccc1F)N1CCN(C(=O)C2CC2)CC1 [Olaparib] (partner 8 µM)
Summary of the method: as §1

[3] = compound: CO[C@@H]1[C@H](N(C)C(=O)c2ccccc2)C[C@H]2O[C@]1(C)n1c3ccccc3c3c4c(c5c6ccccc6n2c5c31)C(=O)NC4 [Midostaurin] + Cc1nc(NC(=O)N2CCC[C@H]2C(N)=O)sc1-c1ccnc(C(C)(C)C(F)(F)F)c1 [Alpelisib] (partner 2 µM)
Summary of the method: as §1

[4] = compound: CO[C@@H]1[C@H](N(C)C(=O)c2ccccc2)C[C@H]2O[C@]1(C)n1c3ccccc3c3c4c(c5c6ccccc6n2c5c31)C(=O)NC4 [Midostaurin] + O=C(c1cc(Cc2n[nH]c(=O)c3ccccc23)ccc1F)N1CCN(C(=O)C2CC2)CC1 [Olaparib] (partner 8 µM)
Summary of the method: as §1

[5] = compound: COc1cc(-c2nn([C@H]3CC[C@H](N4CCN(C(C)=O)CC4)CC3)c3ncnc(N)c23)ccc1NC(=O)c1cc2ccccc2n1C + C[C@]1(O)C[C@@H](c2nc(-c3ccc4ccc(-c5ccccc5)nc4c3)c3c(N)nccn32)C1 [Linsitinib] (partner 1 µM)
Summary of the method: as §1

Cell Line | relative viability ([1]; first compound 0.01 µM) | relative viability ([1]; first compound 0.03162 µM) | relative viability ([1]; first compound 0.1 µM) | relative viability ([1]; first compound 0.3162 µM) | relative viability ([2]; first compound 0.0128 µM) | relative viability ([2]; first compound 0.04048 µM) | relative viability ([2]; first compound 0.128 µM) | relative viability ([2]; first compound 1.28 µM) | relative viability ([3]; first compound 0.01 µM) | relative viability ([3]; first compound 0.03162 µM) | relative viability ([3]; first compound 0.1 µM) | relative viability ([3]; first compound 0.3162 µM) | relative viability ([4]; first compound 0.01 µM) | relative viability ([4]; first compound 0.03162 µM) | relative viability ([4]; first compound 0.1 µM) | relative viability ([4]; first compound 0.3162 µM) | relative viability ([5]; first compound 0.0128 µM) | relative viability ([5]; first compound 0.04048 µM) | relative viability ([5]; first compound 0.128 µM) | relative viability ([5]; first compound 1.28 µM)
NCI-H358 | 0.158 | 0.167 | 0.173 | 0.159 | 0.587 | 0.513 | 0.526 | 0.374 | 0.891 | 0.719 | 0.954 | 0.768 | 0.511 | 0.48 | 0.531 | 0.575 | 0.664 | 0.73 | 0.681 | 0.462
NCI-H1944 | 0.61 | 0.579 | 0.566 | 0.642 | 0.431 | 0.409 | 0.444 | 0.331 | 0.799 | 0.908 | 0.887 | 0.946 | 0.388 | 0.433 | 0.402 | 0.429 | 1.18 | 1.16 | 1.06 | 0.839
EPLC-272H | 0.229 | 0.357 | 0.256 | 0.256 | 0.666 | 1.01 | 0.729 | 0.589 | 0.74 | 0.909 | 1.05 | 1.05 | 0.659 | 0.729 | 0.658 | 0.372 | 1.45 | 1.21 | 0.878 | 1.04
NCI-H1915 | 0.46 | 0.472 | 0.506 | 0.477 | 0.273 | 0.285 | 0.262 | 0.248 | 1.04 | 1.02 | 1.06 | 1.06 | 0.257 | 0.249 | 0.243 | 0.224 | 1.17 | 1.13 | 1.11 | 1.03
NCI-H596 | 0.528 | 0.551 | 0.488 | 0.551 | 0.722 | 0.787 | 0.681 | 0.593 | 0.587 | 0.546 | 0.508 | 0.432 | 0.77 | 0.691 | 0.722 | 0.777 | 1.1 | 1.3 | 1.12 | 0.748
NCI-H322M | 0.692 | 0.527 | 0.677 | 0.677 | 0.818 | 0.801 | 0.693 | 0.691 | 0.836 | 0.686 | 0.882 | 0.807 | 0.703 | 0.72 | 0.698 | 0.779 | 0.9 | 0.909 | 0.767 | 0.803
NCI-H2228 | 0.35 | 0.343 | 0.313 | 0.334 | 0.711 | 0.948 | 0.567 | 0.459 | 0.891 | 0.762 | 0.7 | 0.695 | 0.618 | 0.588 | 0.744 | 0.556 | 0.54 | 0.883 | 0.649 | 0.643
NCI-H647 | 0.185 | 0.2 | 0.184 | 0.112 | 0.646 | 0.567 | 0.514 | 0.373 | 0.948 | 1.15 | 0.861 | 0.672 | 0.495 | 0.688 | 0.455 | 0.316 | 1.3 | 1.36 | 1.14 | 0.785
SK-MES-1 | 0.856 | 0.826 | 0.885 | 0.854 | 0.79 | 0.873 | 0.672 | 0.587 | 0.886 | 0.818 | 0.986 | 0.671 | 0.634 | 0.595 | 0.66 | 0.473 | 1.13 | 1.17 | 1.07 | 1.06
NCI-H2085 | 0.971 | 0.784 | 0.928 | 0.632 | 0.817 | 0.891 | 0.804 | 0.653 | 0.961 | 0.9 | 0.907 | 0.788 | 0.76 | 0.708 | 0.834 | 0.711 | 0.832 | 0.932 | 0.834 | 0.851
SW 1573 | 0.843 | 0.957 | 0.849 | 0.752 | 0.439 | 0.414 | 0.412 | 0.393 | 0.73 | 0.721 | 0.805 | 0.618 | 0.503 | 0.547 | 0.403 | 0.249 | 0.706 | 0.72 | 0.63 | 0.598
NCI-H441 | 0.304 | 0.259 | 0.222 | 0.254 | 0.554 | 0.51 | 0.622 | 0.624 | 0.817 | 0.669 | 0.536 | 0.736 | 0.475 | 0.677 | 0.458 | 0.427 | 0.555 | 0.612 | 0.603 | 0.491
LOU-NH91 | 0.317 | 0.399 | 0.37 | 0.397 | 0.924 | 1.01 | 0.902 | 0.831 | 0.776 | 0.673 | 0.724 | 0.756 | 0.922 | 0.828 | 0.88 | 0.943 | 0.889 | 1.02 | 1.02 | 0.833
NCI-H3122 | 0.201 | 0.185 | 0.201 | 0.19 | 0.683 |  | 0.64 | 0.621 | 0.86 | 0.683 | 0.924 | 0.878 | 0.655 | 0.614 | 0.573 | 0.723 | 1.1 |  | 1 | 0.875
NCI-H460 | 0.0611 | 0.0661 | 0.0666 | 0.0626 | 0.48 | 0.47 | 0.312 | 0.386 | 0.47 | 0.433 | 0.371 | 0.365 | 0.406 | 0.417 | 0.314 | 0.382 | 0.662 | 1.09 | 0.669 | 0.344
